The structures appear in SMILES notation. Read-outs that look alike come from different tables or passages of the source. A value given as a limit tells only on which side of the number the result lay.

Usually CC50 stands for the concentration at which the toxic effect on the cells reaches its halfway point. What is called Cmax is the maximum level reached in the sampled fluid or tissue. For orientation: EC50 means the concentration giving half of the maximal effect.

Series [1] concerns the target T1, carboxylesterase 1 (CES1) (Homo sapiens, UniProt P23141).
T1 construct: purchased R & D Systems (Minneapolis, Minn.)
T1 sequence (P23141 18-567): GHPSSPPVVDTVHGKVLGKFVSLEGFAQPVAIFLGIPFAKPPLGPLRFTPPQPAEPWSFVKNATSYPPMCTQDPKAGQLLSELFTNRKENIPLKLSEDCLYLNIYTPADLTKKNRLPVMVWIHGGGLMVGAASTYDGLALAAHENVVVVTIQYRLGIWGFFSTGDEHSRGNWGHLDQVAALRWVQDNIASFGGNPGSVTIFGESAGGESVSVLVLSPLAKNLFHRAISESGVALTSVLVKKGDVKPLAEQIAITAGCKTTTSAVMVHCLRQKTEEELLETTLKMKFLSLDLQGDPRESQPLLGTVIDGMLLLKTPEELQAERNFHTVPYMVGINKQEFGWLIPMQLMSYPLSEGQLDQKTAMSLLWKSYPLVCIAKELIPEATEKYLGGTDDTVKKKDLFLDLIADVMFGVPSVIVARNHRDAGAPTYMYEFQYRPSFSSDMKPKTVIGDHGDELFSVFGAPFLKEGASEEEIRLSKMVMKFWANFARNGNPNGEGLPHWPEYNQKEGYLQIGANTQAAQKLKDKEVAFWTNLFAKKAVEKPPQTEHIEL
The series is described as follows: Hydrolysis of prodrugs by Carboxylesterase 1. In kind it is in vitro ADME. The conditions noted are these: for CES1 hydrolysis: 100 μM compound, 37° C., pH 7.5.
Procedure: CES1 assay was performed at 37° C. in the reaction mixture containing 50 mM Tris/HCl buffer pH 7.5 and 100 μM of the compound. Reaction was started by addition of the CES1 to the final concentration 0.01 μg/mL. 100 μL aliquots were taken after 0.5 min, 3 hrs and 21 hrs of the incubation and the reaction was stopped by mixing with 100 μl of the ice-cold methanol prior to HPLC analysis.
Samples were analyzed by HPLC using 5 μC-18, 4.6×250 mm Phenomenex® Columbus column (Phenomenex USA, Calif.). The mobile phase consisted of buffer A (25 mM potassium phosphate with 5 mM tetrabutylammonium dihydrogen phosphate pH 6.3) and buffer B (100% methanol).

The target in a further series is T2, cathepsin A (CatA) (Homo sapiens, UniProt P10619).
T2 sequence (P10619 29-326 limits assumed): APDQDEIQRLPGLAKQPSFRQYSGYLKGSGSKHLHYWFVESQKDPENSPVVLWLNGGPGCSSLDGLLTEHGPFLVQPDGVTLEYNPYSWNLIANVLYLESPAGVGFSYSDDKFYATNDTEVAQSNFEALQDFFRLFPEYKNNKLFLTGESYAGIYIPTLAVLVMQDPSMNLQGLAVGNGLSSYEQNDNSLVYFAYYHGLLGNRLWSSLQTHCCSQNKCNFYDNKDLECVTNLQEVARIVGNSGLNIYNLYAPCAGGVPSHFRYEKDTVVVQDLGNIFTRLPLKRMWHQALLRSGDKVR
T2 sequence (P10619 327-480 limits assumed): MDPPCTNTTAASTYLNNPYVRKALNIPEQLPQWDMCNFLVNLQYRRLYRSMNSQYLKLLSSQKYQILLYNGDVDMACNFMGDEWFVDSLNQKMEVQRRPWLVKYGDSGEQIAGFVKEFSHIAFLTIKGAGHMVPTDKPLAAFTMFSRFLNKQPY
The series is described as follows: Hydrolysis of prodrugs by Cathepsin A. In kind it is in vitro ADME. The procedure: CatA, cathepsin L (CatL) and CES1 were purchased from R & D Systems (Minneapolis, Minn.). Prior to the enzymatic hydrolysis reactions, CatA was activated according to the manufacturer's instruction. Briefly, CatA (0.05 μg/μL) was incubated with CatL (0.005 μg/μL) for 30 min at 37° C. in 25 mM MES pH 6.0 containing 5 mM DTT. The reaction was stopped by addition of the CatL specific inhibitor E64 (10 μM).
The CatA assay was performed at 37° C. The reaction mixture contained 25 mM MES buffer pH 6.0, 100 mM NaCl, 4 mM DTT and 100 μM of the compound. The reaction was started by addition of the activated CatA enzyme to a final concentration of 0.005 μg/μL. […] Reactions were stopped by mixing the sample with an equal volume of ice-cold methanol, and were loaded on a HPLC for analysis.

The next series has as its system Huh-7 cells. The series is described as follows: Release of active metabolite in Huh-7 cells. In kind it is in vitro ADME, human. The note with it: Table 7. Here is the method: Huh-7 cells were plated in 1 mL culture medium (DMEM, containing glucose, L-glutamine and sodium pyruvate, 10% FBS, 100 IU/mL penicillin, 100 μg/mL streptomycin, 2 mM GlutaMAX, 1% MEM non-essential amino acids) at the concentration 0.8, 0.4 and 0.2 million cells per well on 6 well plates for 24, 48 and 72 hr treatment, respectively. Plated cells were incubated overnight at 37° C. in an incubator.
The following morning test compound was diluted to 20 μM from a stock solution in DMSO in fresh culture medium pre-warmed to 37° C. and 1 mL of the solution/well was added to cells. A final medium volume per well was 2.0 mL, test compound concentration in well was 10 μM and final DMSO concentration was 0.1%.
After 24, 48 or 72 hr, the medium was carefully removed and cell monolayers were washed twice with 2 mL ice-cold PBS per well. Following the last wash, all PBS was carefully removed and 1.0 mL of extraction solution (ice-cold 70% methanol) added. The plate was tightly covered with Parafilm, plastic plate cover and Parafilm again and an intracellular content was extracted at −20° C. for 24 hr.
After 24 hr the extracts were transferred into polypropylene microfuge tubes and dry on a refrigerated centrivap concentrator. Dry residues were reconstituted in 250 μL of HPLC-grade water and centrifuged at 16,000×g for 10 min. Aliquots (100 μL each) of the supernatants were transferred into a 96 well plate and internal standard (4 ng/mL final concentration) was added as the internal standard (IS) for LC-MS/MS analysis.

The subject of the next series is Zluc cells. The series is described as follows: Cytotoxicity evaluation in Zluc cells (CellTiter-Blue). The conditions noted are these: read-out: HCV Replicon CC50. The class given is cell-based, human. Here is the method: For cytotoxicity evaluation, Zluc cells were treated with compound as described herein, and cell viability was monitored using the CellTiter-Blue Cell Viability Assay (Promega) by adding 20 μL of the assay solution to each well. The plates were then incubated at 37° C./5% CO2 for at least 3 hours.

The nature of series [2]: Liver triphosphate and plasma prodrug and nucleoside PK after single oral dose (Example 5). In kind it is in vivo, Cynomolgus monkeys. The note with it: oral 10 mg/kg. Here is the method:
For each compound, a single oral dose at 10 mg/kg in PEG 200 (dose volume 3 mL/kg) was administered to cynomolgus monkeys. Untreated animals were used for the collection of control liver. Plasma samples were collected at 0.5, 1, 2, 4, 6, 8, 12 and 24 hours for compound 37, diastereomer 2.
(§1) Plasma samples were analyzed for the prodrug and nucleoside by LC-MS/MS. For protein precipitation and extraction, each plasma sample (50 μL) was treated with 500 μL of 0.2% formic acid in acetonitrile and 20 μL of an appropriate internal standard working solution. After vortexing and centrifugation, 500 μL of the sample extracts were transferred to a new plate, dried under N2 at ˜28° C. and reconstituted with 75 μL of 0.2% FA in water. The extracts were chromatographed on an Aquasil C18 column using a gradient system of 0.2% formic acid in water and acetonitrile. The analytes were detected and quantified by tandem mass spectrometry in positive ion mode on an MDS Sciex API4000 equipped with a Turbo Ionspray® interface.
Liver samples were analyzed for the relevant nucleoside triphosphate by LC-MS/MS. […] Appropriate internal standard solution was added to the homogenate followed by neutralization with 20% ammonium hydroxide solution and addition of 500 μL 1% formic acid. The tissue samples were extracted by weak anion exchange solid phase extraction (SPE). Post extraction, the eluates were evaporated under nitrogen, followed by reconstitution before injection onto the LC-MS/MS system.

Another series relates to HCV genotype 1b replicon. Nature of the series: HCV replicon assay. In kind it is cell-based. The conditions noted are these: Zluc (Huh-7-derived) cells, luciferase reporter, 72 hours; read-out: HCV Replicon EC50. The procedure: Huh-7-derived cell line (Zluc) that harbors an HCV genotype 1b replicon and a luciferase reporter gene was grown in Dulbecco's Modified Eagle Medium (DMEM) supplemented with 10% fetal bovine serum, 2 mM GlutaMAX, 1% MEM nonessential amino acids, 100 IU/mL penicillin, 100 μg/mL streptomycin, and 0.5 mg/mL Geneticin® (G418). For dose response testing the cells were seeded in 96-well plates at 7.5×10^3 cells per well in a volume of 50 μL, and incubated at 37° C./5% CO2. Drug solutions were made up freshly in Huh-7 media as 2× stocks. Ten additional 5-fold dilutions were prepared from these stocks in DMEM without G418. At least three hours after Zluc cells were seeded, drug treatment was initiated by adding 50 μL of drug dilutions to the plates in duplicate. Final concentrations of drug ranged from 100 μM to […]. Cells were then incubated at 37° C./5% CO2. Alternatively, compounds were tested at two concentrations (1 μM and 10 μM). […] For this, media was removed from the plates via gentle tapping. Fifty microliters of ONE-glo luciferase assay reagent was added to each well. The plates were shaken gently for 3 min at room temperature and luminescence was measured on a Victor^3 V 1420 multilabel counter (Perkin Elmer) with a 1 second read time using a 700 nm cut-off filter. The EC50 values were calculated from dose response curves from the resulting best-fit equations determined by Microsoft Excel and XLfit 4.1 software. When screening at two fixed concentrations, the results were expressed as % inhibition at 1 μM and 10 μM.
(Replicon systems follow genome replication, usually without infectious particles.)

Series [3] can be described thus: Plasma nucleoside and liver triphosphate PK after single oral dose (Example 4). The class given is in vivo, CD-1 mice. The conditions noted are these: at 1 μmol/kg; single oral dose 10 mg/kg in PEG 200. Here is the method: as §1, with “for” for “for the prodrug and”, “LC-MS/MS. The internal standard (IS) was either 2′-MeG-D3 or tiapride.” for “LC-MS/MS.”, “the” for “an appropriate”, “API5000” for “API4000”, “interface. The calibration range was 0.500 (LLOQ) to 200 ng/mL in mouse plasma.” for “interface.”
Internal standard solution was added to the homogenate followed by neutralization with 20% ammonium hydroxide solution and addition of 500 μL 1% formic acid. The tissue samples were extracted by weak anion exchange solid phase extraction (SPE). Post extraction, the eluates were evaporated under nitrogen, followed by reconstitution before injection onto the LC-MS/MS system.

For `CC(C)OC(=O)[C@H](C)N[P@](=O)(OC[C@H]1O[C@@H](n2ccc(=O)[nH]c2=O)[C@](C)(F)[C@@H]1O)Oc1ccccc1` (single isomer, unassigned) [GS-7977, reference compound], in series [1], the “Hydrolysis by CES1” value is “hydrolyzed”. Also, the CES1 hydrolysis in series [1] (3 h) is given as 12%/3 h;; in series [1] (21 h) it was 15%/21 h. Further, the “Hydrolysis by CatA” value at cathepsin A (CatA) was “hydrolyzed”. Moreover, on cathepsin A (CatA) (@ 18 h, 100 μM compound, 37° C., pH 6.0), the CatA hydrolysis amounted to 100% @. In addition, the “CatA cleavage efficiency relative to the RP diastereoisomer” value on cathepsin A (CatA) (GS-7977 (SP) versus RP diastereoisomer) is reported as 10 times. The “Huh-7 AUC0-72” value in the series with Huh-7 cells worked out at 63555 pmol*hr/10^6cells.

With `C[C@@H](NP(=O)(OC[C@H]1O[C@@H](n2ccc(=O)[nH]c2=O)[C@](C)(Cl)[C@@H]1O)Oc1ccccc1)C(=O)OCc1ccccc1` (single isomer, unassigned) [205i Diastereomer 1], the CC50 with Zluc cells was more than 50 µM.

Regarding `CC(C)OP1(=O)OC[C@H]2O[C@@H](n3ccc(=O)[nH]c3=O)[C@](C)(Cl)[C@@H]2O1` (single isomer, unassigned; diastereomer 2) [37 Diastereomer 2], the “Nucleoside triphosphate in Liver C6” value in series [2] (6 hours post dose, normalized to 1 μmol/kg dose) was 1500 pmol/g. In series [2], the “Nucleoside triphosphate in Liver Tmax” value was 12 h, the “Plasma nucleoside Tmax” value was 4 h and the “Plasma prodrug Tmax” value is 4 h. Also, in series [2] (normalized to 1 μmol/kg dose), the “Nucleoside triphosphate in Liver AUC0-24” value came out at 29000 pmol·h/g, the “Nucleoside triphosphate in Liver Cmax” value was determined as 1700 pmol/g, the “Plasma nucleoside AUC0-24” value was determined as 0.65 µM·h and the “Plasma prodrug AUC0-24” value is 4 µM·h. For the same compound, in series [2] (normalized to 1 μmol/kg dose, read-out: Plasma nucleoside Cmax), the Cmax was determined as 51 nM. Further, the Cmax in series [2] (normalized to 1 μmol/kg dose, read-out: Plasma prodrug Cmax) was 840 nM.

`CCCCOC(=O)[C@@H](C)NP(=O)(OC[C@H]1O[C@@H](n2ccc(=O)[nH]c2=O)[C@](C)(Cl)[C@@H]1O)Oc1ccccc1` (single isomer, unassigned) [202i Diastereomer 1]: the CC50 in the series with Zluc cells is more than 50 µM.

In the case of `CCCCOC(=O)[C@@H](C)NP(=O)(OC[C@H]1O[C@@H](n2ccc(=O)[nH]c2=O)[C@](C)(Cl)[C@@H]1O)Oc1ccccc1` (single isomer, unassigned; diastereomer 2) [202i Diastereomer 2], in the series with Zluc cells, the CC50 is more than 50 µM. The EC50 in the series on HCV genotype 1b replicon lay in the range of 0.25 to 1 µM. Also, the “Ms Plasma nucleoside AUC” value in series [3] is 0.00612 M·s.

Regarding `C[C@@H](NP(=O)(OC[C@H]1O[C@@H](n2ccc(=O)[nH]c2=O)[C@](C)(Cl)[C@@H]1O)Oc1ccccc1)C(=O)OCc1ccccc1` (single isomer, unassigned; diastereomer 2) [205i Diastereomer 2], the CC50 in the series with Zluc cells was more than 50 µM. For the same compound, the EC50 in the series on HCV genotype 1b replicon lay in the range of 0.25 to 1 µM. Also, in series [3], the “Ms Plasma nucleoside AUC” value stood at 0.00612 M·s.

The record behind these values is patent publication US10717758B2, “D-amino acid compounds for liver disease” (priority 2012, dated 2020).
